Consider 1 molecule from US6964959B2, “Use of a methylol-containing compound to treat tumors” (Carter Wallace, Inc., priority 1999, dated 2005).

One experiment has as its system NIH-3T3. The experiment is described as follows: Flow cytometry cell cycle distribution / DNA debris, NIH-3T3. Type of experiment: cell-based, murine. Here is the method:
Three×10^5 cells were seeded in plastic tissue culture flasks. […] Control cultures received an appropriate volume of Kollidine-17P. […] The percentage of DNA debris in the sub-G0/G1 region was assessed using cytofluorometric techniques. Each bar represents the mean (±SE) of three determinations. **p≦0.01, ***p≦0.001, ****p≦0.0001
For flow cytometry studies, 1×10^6 PA-1, SKOV-3, or NIH-3T3 cells were incubated for 24 h in appropriate media containing serum. […] Control cultures for each cell line were incubated in media containing 40 μl of 5% Kollidon 17PF alone. […] For example, harvested cells were resuspended in ice cold phosphate-buffered saline at a final cell density of 2×10^6 cells/ml. The cells then were stained for 30 min at room temperature in the dark with a solution of 0.05 mg/ml propidium iodide, 0.6% Igepal, and 1% sodium citrate. Flow cytometry was performed by FACScan (Becton Dickinson, Plymouth, England) using the ModFit LT program (Becton Dickinson). Statistical analysis was performed with the Kruskal Wallis non-parametric ANOVA test followed by Dunn's multiple comparisons test using Instat.
(§1) Three×10^5 cells were seeded in plastic tissue culture flasks. […] Control cultures received an appropriate volume of Kollidine-17P. After an additional 48 h, cells were harvested, stained with propidium iodide, and cell cycle distribution assessed using cytofluorometric techniques. Each value represents the percentage of cells in the noted cell cycle phases and is the mean±SEM of three determinations.

Experiment [1] deals with PA-1. As to the kind of experiment: Flow cytometry cell cycle distribution / DNA debris, PA-1. It counts as cell-based, human. Here is the method:
Three×10^5 cells were seeded in plastic tissue culture flasks. […] Control cultures received an appropriate volume of Kollidine-17P. […] The percentage of DNA debris in the sub-G0/G1 region was assessed using cytofluorometric techniques.
For flow cytometry studies, 1×10^6 PA-1, SKOV-3, or NIH-3T3 cells were incubated for 24 h in appropriate media containing serum. […] Control cultures for each cell line were incubated in media containing 40 μl of 5% Kollidon 17PF alone. Forty-eight hours later, all cells were harvested by trypsinization and prepared for cytofluorometric analysis by standard methods. For example, harvested cells were resuspended in ice cold phosphate-buffered saline at a final cell density of 2×10^6 cells/ml. The cells then were stained for 30 min at room temperature in the dark with a solution of 0.05 mg/ml propidium iodide, 0.6% Igepal, and 1% sodium citrate. Flow cytometry was performed by FACScan (Becton Dickinson, Plymouth, England) using the ModFit LT program (Becton Dickinson). Statistical analysis was performed with the Kruskal Wallis non-parametric ANOVA test followed by Dunn's multiple comparisons test using Instat.
as §1

Experiment [2] relates to PA-1. As to the kind of experiment: Annexin-V FITC binding (phosphotidylserine externalization), PA-1. Type of experiment: cell-based, human. The note with it: 24 h exposure. Here is the method: (§2) Three×10^5 cells were seeded in plastic tissue culture flasks. […] Control cultures received an appropriate volume of Kollidine-17P. After an additional 24 h, cells were harvested and phosphotidylserine externalization determined by assessing Annexin-V FITC binding using cytofluorometric techniques. Each bar represents the mean±SE of four determinations. **p≦0.01, ***p≦0.001
(§3) Cell membrane phosphotidylserine externalization, as a reflection of the potential induction of apoptosis, was assessed by flow cytometry methods using the ApoAlert® Annexin-V/FITC assay kit. Briefly, 1×10^6 cells were incubated for 24 h in tissue culture medium containing serum. […] Control cultures received 5% Kollidon 17PF alone. Twenty-four hours later, all cells were harvested by trypsinization. The harvested cells were resuspended in 200 μl of binding buffer and then incubated for 5-15 min in a solution containing 1 μg/ml Annexin-V FITC at room temperature in the dark. The cells were then analyzed to quantitate Annexin-V binding by cytofluorometric techniques that utilized FACScan using the ModFit LT program with statistical analysis as described above.

For a further experiment, the system named is SKOV-3. As to the kind of experiment: Annexin-V FITC binding (phosphotidylserine externalization), SKOV-3. It counts as cell-based, human. The note with it: 24 h exposure. Here is the method: as §2, §3
The test system of experiment [3] is PARP. As to the kind of experiment: Western-blot analysis of PARP cleavage, SKOV-3 cells. The note with it: 24 h exposure to 50 or 100 μM. It counts as cell-based, human. Here is the method: (§4) Two×10^6 cells were seeded in 150 cm^2 tissue culture flasks. […] After an additional twenty-four hours, cells were harvested, cell number determined, and aliquots derived from equal cell numbers generated from each exposure condition. Total proteins from these whole cell lysates were separated by SDS-PAGE and transferred to nitrocellulose filters. Filters were then immunoblotted to detect intact PARP protein and cleavage fragments by using the clone C-2-10 mouse monoclonal anti-PARP antibody (Zymed Laboratories, San Francisco, Calif.). The resulting protein-antibody complexes were visualized by chemiluminescence techniques.
(§5) Western-blot analysis was used to assess of PARP cleavage. Two×10^6 cells were seeded into separate 75 cm^2 tissue culture flasks containing 20 ml of tissue culture media plus serum. […] Twenty-four hours after the addition of Taurolidine, cells were harvested, cell number determined, and aliquots containing an equal cell number were generated from each exposure condition. Total proteins from whole cell lysates generated from these aliquots were separated by SDS-PAGE and electrotransferred to nitrocellulose filters. Filters were then processed to detect intact PARP protein and cleavage fragments by using the clone C-2-10 mouse monoclonal anti-PARP antibody (Zymed Laboratories, San Francisco, Calif.). […]

The subject of experiment [4] is PARP. As to the kind of experiment: Western-blot analysis of PARP cleavage, NIH-3T3 cells. Type of experiment: cell-based, murine. As to conditions: 24 h exposure to 50 or 100 μM. Here is the method:
as §4, §5

The next experiment relates to human cancer cell lines. As to the kind of experiment: Growth inhibition of human cancer cell lines, 3-day exposure. It counts as cell-based. The note with it: 72 h, read-out: concentration required to inhibit tumor cell growth (IC50). Here is the method:
Parallel studies were carried out to assess whether disruption of cell adhesion played a role in the cytotoxic activity.

Another experiment relates to PA1 human ovarian cells. As to the kind of experiment: DNA fragmentation, PA1 human ovarian cells. Type of experiment: cell-based. An excerpt: This DNA fragmentation was not observed in normal 3T3 cells.
Experiment [5] relates to HL-60 human promyelocytic cell line. As to the kind of experiment: Apoptosis induction in HL-60 cells. As to conditions: non-adherent cancer cell models. It counts as cell-based.
For experiment [6], the system named is normal murine bone marrow cultures. As to the kind of experiment: Cytotoxic and apoptotic activity in normal murine bone marrow cultures. Type of experiment: cell-based. The text has this:
This observation was confirmed using normal (non-tumor) primary cells derived from animals, which are known to be free of tumors.

“Also recorded” adds a separate entry of the source.

For the molecule `O=S1(=O)CCN(CN2CCS(=O)(=O)NC2)CN1` [Taurolidine, Bis-(1,1-dioxoperhydro-1,2,4-thiadiazinyl-4)methane], the “cell cycle kinetics and distribution” value in the experiment with NIH-3T3 (3T3, 24-hour exposure) was “significantly reduced the percentage of cells in both the S- and G2/M-phases”; in the experiment with PA-1 [1] (PA1, 24-hour exposure), “significantly reduced the percentage of cells in both the S- and G2/M-phases”. The “effect on cell cycle distribution” value in the experiment on NIH-3T3 (NIH-3T3, 48 h exposure) is “increased the percentage of cells in S-phase, decreased the percentage of cells in G0/G1; also recorded: decreased the percentage of cells in G0/G1 and increased the percentage of cells in S”; with PA-1 [1] (PA-1, 48 h exposure, up to 100 μM), “little effect on the cell cycle; also recorded: little effect on cell cycle distribution”. Further, the “DNA debris in the sub-G0/G1 region” value in the experiment on NIH-3T3 (NIH-3T3, 48 h exposure, 25-100 μM) is “did not increase DNA debris; also recorded: did not significantly affect the appearance of DNA debris”; in the experiment with PA-1 [1] (PA-1, 48 h exposure, 25-100 μM), “significantly increased DNA debris; also recorded: resulted in the appearance of DNA debris”. Further, the “increase in Annexin-V binding (Annexin-V positive cells)” value in the experiment on PA-1 [2] stood at 4 fold; in the experiment with SKOV-3, 3 fold. Besides, the values for the PARP cleavage result in the experiment on PARP [3], with PARP [4] and in the experiment on PARP [4] (listed as taurolidine) were “induced PARP cleavage; also recorded: resulted in PARP cleavage”, “little evidence of this proteolytic event” and “PARP cleavage was not evident”, respectively. Also, the IC50 in the experiment with human cancer cell lines lay in the range of 12.5 to 50 µM. Also, the DNA fragmentation entry in the experiment with PA1 human ovarian cells (PA1, 24-hour exposure) is listed as “induced a high degree of DNA fragmentation”. In the experiment with PA1 human ovarian cells (ovarian tumor cells, 50 μM), the “DNA fragmentation by agarose-gel electrophoresis” value is listed as “overt DNA fragmentation”. The “apoptotic signalling events after exposure” value in [5] was “activation of caspases 3, 8 and 9”. Besides, the “concentrations required to inhibit cell proliferation” value in experiment [6] (normal murine bone marrow) was “concentrations in the mM range”. For the same molecule, in experiment [6] (normal murine bone marrow cultures), the induction of apoptosis result is recorded as “did not produce cellular changes consistent with the induction of apoptosis”.
